Measured values from patent publication US10385048B2, “Pesticidally active polycyclic derivatives with sulfur containing substituents” (Syngenta Participations AG, priority 2014, dated 2019).

Columns and labels:
Assay type in all cases: in vivo
[1] = system: Aedes aegypti; test: Aedes aegypti (yellow fever mosquito), dry deposit in 12 well plates, adult females; conditions: application rate 200 ppm in ethanol, after 48 h and/or 24 h
Procedure: Example B12: Aedes aegypti (Yellow Fever Mosquito)
(§1) Test solutions, at an application rate of 200 ppm in ethanol, were applied to 12 well tissue culture plates. Once the deposits were dry, five, two to five day old adult female Aedes aegypti were added to each well, and sustained with a 10% sucrose solution in a cotton wool plug. Assessment of knockdown was made one hour after introduction, and mortality was assessed at 24 and 48 hours after introduction.

[2] = system: Plutella xylostella; test: Plutella xylostella (diamond back moth), artificial diet, L2 larvae; conditions: 120 h, application rate 200 ppm, 5 days after infestation, read-out: effect in at least one of the two categories (mortality or growth inhibition)
Procedure: Example B7: Plutella xylostella (Diamond Back Moth)
(§2) 24-well microtiter plates with artificial diet were treated with aqueous test solutions prepared from 10′000 ppm DMSO stock solutions by pipetting. After drying, the plates were infested with L2 larvae (10 to 15 per well). The samples were assessed for mortality and growth inhibition in comparison to untreated samples 5 days after infestation.

[3] = system: Diabrotica Balteata; test: Diabrotica balteata (corn root worm), maize sprouts, L2 larvae; conditions: 96 h, application rate 200 ppm, 4 days after infestation, read-out: effect in at least one of the two categories (mortality or growth inhibition)
Procedure: Example B2: Diabrotica Balteata (Corn Root Worm)
as §2, with “Maize sprouts placed onto an agar layer in 24-well” for “24-well”, “plates” for “plates with artificial diet”, “spraying.” for “pipetting.”, “(6” for “(10”, “10” for “15”, “4” for “5”

[4] = system: Euschistus heros; test: Euschistus heros (neotropical brown stink bug), soybean leaves, N2 nymphs; conditions: 120 h, application rate 200 ppm, 5 days after infestation, read-out: effect in at least one of the two categories (mortality or growth inhibition)
Procedure: Example B3: Euschistus heros (Neotropical Brown Stink Bug)
Soybean leaves on agar in 24-well microtiter plates were sprayed with aqueous test solutions prepared from 10′000 ppm DMSO stock solutions. After drying the leaves were infested with N2 nymphs. The samples were assessed for mortality and growth inhibition in comparison to untreated samples 5 days after infestation.

[5] = system: Spodoptera littoralis; test: Spodoptera littoralis (Egyptian cotton leaf worm), cotton leaf discs, L1 larvae; conditions: foliar, 72 h, application rate 200 ppm, L1 larvae on cotton leaf discs, 3 days after infestation
Procedure: Example B8: Spodoptera littoralis (Egyptian Cotton Leaf Worm)
Cotton leaf discs were placed onto agar in 24-well microtiter plates and sprayed with aqueous test solutions prepared from 10′000 ppm DMSO stock solutions. After drying the leaf discs were infested with five L1 larvae. The samples were assessed for mortality, anti-feeding effect, and growth inhibition in comparison to untreated samples 3 days after infestation. Control of Spodoptera littoralis by a test sample is given when at least one of the categories mortality, anti-feedant effect, and growth inhibition is higher than the untreated sample.

[6] = system: Myzus persicae; test: Myzus persicae (green peach aphid) feeding/contact activity, sunflower leaf discs; conditions: foliar, 144 h, application rate 200 ppm, 6 days after infestation
Procedure: Example B5: Myzus persicae (Green Peach Aphid): Feeding/Contact Activity
(§3) Sunflower leaf discs were placed onto agar in a 24-well microtiter plate and sprayed with aqueous test solutions prepared from 10′000 ppm DMSO stock solutions. After drying, the leaf discs were infested with an aphid population of mixed ages. The samples were assessed for mortality 6 days after infestation.

[7] = system: Anopheles stephensi; test: Anopheles stephensi (Indian malaria mosquito), dry deposit in 12 well plates, adult females; conditions: application rate 200 ppm in ethanol, after 48 h and/or 24 h
Procedure: Example B13: Anopheles stephensi (Indian Malaria Mosquito)
as §1, with “Anopheles stephensi” for “Aedes aegypti”

[8] = system: Spodoptera littoralis; test: Spodoptera littoralis (Egyptian cotton leaf worm), uptake by lettuce roots from agar, eggs; conditions: 144 h, test rate 12.5 ppm, lettuce root uptake, 6 days after infestation, read-out: effect in at least one of the three categories (mortality, anti-feeding, or growth inhibition)
Description: Example B9: Spodoptera littoralis (Egyptian Cotton Leaf Worm)
Test compounds were applied by pipette from 10′000 ppm DMSO stock solutions into 24-well plates and mixed with agar. Lettuce seeds were placed onto the agar and the multi well plate was closed by another plate which contained also agar. After 7 days the compound was absorbed by the roots and the lettuce grew into the lid plate. The lettuce leaves were then cut off into the lid plate. Spodoptera eggs were pipetted through a plastic stencil onto a humid gel blotting paper and the lid plate was closed with it. The samples were assessed for mortality, anti-feedant effect and growth inhibition in comparison to untreated samples 6 days after infestation.

[9] = system: Thrips tabaci; test: Thrips tabaci (onion thrips) feeding/contact activity, sunflower leaf discs; conditions: foliar, 144 h, application rate 200 ppm, population of mixed ages, 6 days after infestation
Procedure: Example B11: Thrips tabaci (Onion Thrips) Feeding/Contact Activity
as §3, with “on” for “onto”, “in” for “in a”, “plates” for “plate”, “drying” for “drying,”, “a thrips” for “an aphid”

[10] = system: Bemisia tabaci; test: Bemisia tabaci (cotton white fly) feeding/contact activity, cotton leaf discs; conditions: foliar, 144 h, application rate 200 ppm, adult white flies, 6 days after incubation
Procedure: Example B1: Bemisia tabaci (Cotton White Fly): Feeding/Contact Activity
Cotton leaf discs were placed on agar in 24-well microtiter plates and sprayed with aqueous test solutions prepared from 10′000 ppm DMSO stock solutions. After drying the leaf discs were infested with adult white flies. The samples were checked for mortality 6 days after incubation.

[11] = system: Myzus persicae; test: Myzus persicae (green peach aphid) systemic activity, pea seedling roots; conditions: 144 h, test rate 24 ppm, 6 days after placing seedlings into test solutions
[12] = system: Frankliniella occidentalis; test: Frankliniella occidentalis (western flower thrips) feeding/contact activity, sunflower leaf discs; conditions: foliar, 168 h, application rate 200 ppm, population of mixed ages, 7 days after infestation
Procedure: Example B4: Frankliniella occidentalis (Western Flower Thrips): Feeding/Contact Activity
Sunflower leaf discs were placed on agar in 24-well microtiter plates and sprayed with aqueous test solutions prepared from […] stock solutions. After drying the leaf discs were infested with a Frankliniella population of mixed ages. The samples were assessed for mortality 7 days after infestation.

CCSc1cc(C(F)(F)F)cnc1-c1nc2cc(SC(F)(F)F)ncc2n1C [Compound P11, 2-[3-Ethylsulfanyl-5-(trifluoromethyl)-2-pyridyl]-3-methyl-6-(trifluoromethylsulfanyl)imidazo[4,5-c]pyridine]
≥ 80%: pest or weed control at 200 ppm [1] | percent effect (mortality or growth inhibition) at 200 ppm [2] | percent effect (mortality or growth inhibition) at 200 ppm [3] | percent effect (mortality or growth inhibition) at 200 ppm [4] | percent control (mortality, anti-feedant effect or growth inhibition) at 200 ppm [5] | mortality at 200 ppm [6] | pest or weed control at 200 ppm [7]

CCS(=O)(=O)c1cc(C(F)(F)F)cnc1-c1nc2cc(OC(F)(F)Br)ncc2n1C [Compound P5, 6-[bromo(difluoro)methoxy]-2-[3-ethylsulfonyl-5-(trifluoromethyl)-2-pyridyl]-3-methyl-imidazo[4,5-c]pyridine]
≥ 80%: pest or weed control at 200 ppm [1] | percent effect (mortality, anti-feeding or growth inhibition) at 12.5 ppm [8] | percent effect (mortality or growth inhibition) at 200 ppm [3] | percent effect (mortality or growth inhibition) at 200 ppm [4] | percent control (mortality, anti-feedant effect or growth inhibition) at 200 ppm [5] | mortality at 200 ppm [9] | mortality at 200 ppm [6] | pest or weed control at 200 ppm [7] | mortality at 200 ppm [10]

CCS(=O)(=O)c1cc(C(F)(F)F)cnc1-c1nc2cc(OC(F)F)ncc2n1C [Compound P6, 6-(difluoromethoxy)-2-[3-ethylsulfonyl-5-(trifluoromethyl)-2-pyridyl]-3-methyl-imidazo[4,5-c]pyridine]
≥ 80%: percent effect (mortality or growth inhibition) at 200 ppm [2] | percent effect (mortality or growth inhibition) at 200 ppm [3] | percent control (mortality, anti-feedant effect or growth inhibition) at 200 ppm [5] | mortality at 200 ppm [9] | mortality at 200 ppm [6] | mortality at 200 ppm [10]

CCS(=O)(=O)c1cc(C(F)(F)F)cnc1-c1nc2cc(OC)ncc2n1C [Compound P2]
≥ 80%: mortality at 24 ppm [11]

CCSc1cc2nc(-c3ncc(C(F)(F)F)cc3SCC)n(C)c2cn1 [Compound P1]
≥ 80%: percent effect (mortality or growth inhibition) at 200 ppm [2] | percent effect (mortality or growth inhibition) at 200 ppm [3] | percent effect (mortality or growth inhibition) at 200 ppm [4]

CCS(=O)(=O)c1cc(Br)cnc1-c1nc2cc(SC(F)(F)F)ncc2n1C [Compound P16]
≥ 80%: pest or weed control at 200 ppm [1] | percent effect (mortality, anti-feeding or growth inhibition) at 12.5 ppm [8] | percent effect (mortality or growth inhibition) at 200 ppm [2] | percent effect (mortality or growth inhibition) at 200 ppm [3] | percent effect (mortality or growth inhibition) at 200 ppm [4] | percent control (mortality, anti-feedant effect or growth inhibition) at 200 ppm [5] | mortality at 200 ppm [9] | mortality at 200 ppm [6] | pest or weed control at 200 ppm [7] | mortality at 200 ppm [10]

CCS(=O)(=O)c1cc(C(F)(F)F)cnc1-c1nc2cc(SCC(F)(F)F)ncc2n1C [Compound P17, 2-[3-Ethylsulfonyl-5-(trifluoromethyl)-2-pyridyl]-3-methyl-6-(2,2,2-trifluoroethylsulfanyl) imidazo[4,5-c]pyridine]
≥ 80%: percent effect (mortality or growth inhibition) at 200 ppm [3] | mortality at 200 ppm [6]

CCS(=O)(=O)c1cc(C(F)(F)F)cnc1-c1nc2cc(OCC(F)F)ncc2n1C [Compound P3]
≥ 80%: percent effect (mortality, anti-feeding or growth inhibition) at 12.5 ppm [8] | percent effect (mortality or growth inhibition) at 200 ppm [2] | percent effect (mortality or growth inhibition) at 200 ppm [3] | percent effect (mortality or growth inhibition) at 200 ppm [4] | percent control (mortality, anti-feedant effect or growth inhibition) at 200 ppm [5] | mortality at 200 ppm [6]

CCS(=O)(=O)c1cc(C(F)(F)F)cnc1-c1nc2cc([S+]([O-])C(F)(F)F)ncc2n1C (stereo not drawn) [Compound P9, 2-[3-ethylsulfonyl-5-(trifluoromethyl)-2-pyridyl]-3-methyl-6-(trifluoromethylsulfinyl) imidazo[4,5-c]pyridine]
≥ 80%: pest or weed control at 200 ppm [1] | percent effect (mortality, anti-feeding or growth inhibition) at 12.5 ppm [8] | percent effect (mortality or growth inhibition) at 200 ppm [2] | mortality at 200 ppm [12] | percent effect (mortality or growth inhibition) at 200 ppm [3] | percent effect (mortality or growth inhibition) at 200 ppm [4] | percent control (mortality, anti-feedant effect or growth inhibition) at 200 ppm [5] | mortality at 200 ppm [9] | mortality at 200 ppm [6] | mortality at 24 ppm [11] | pest or weed control at 200 ppm [7] | mortality at 200 ppm [10]

CCSc1cc(C(F)(F)F)cnc1-c1nc2cc(OC(F)F)ncc2n1C [Compound P7]
≥ 80%: percent control (mortality, anti-feedant effect or growth inhibition) at 200 ppm [5]

CCSc1cc(C(F)(F)F)cnc1-c1nc2cc(OC(F)F)ncc2n1C [Compound P13, 6-(difluoromethoxy)-2-[3-ethylsulfanyl-5-(trifluoromethyl)-2-pyridyl]-3-methyl-imidazo[4,5-c]pyridine]
≥ 80%: pest or weed control at 200 ppm [1] | percent effect (mortality or growth inhibition) at 200 ppm [2] | percent effect (mortality or growth inhibition) at 200 ppm [3] | percent effect (mortality or growth inhibition) at 200 ppm [4] | mortality at 200 ppm [6] | pest or weed control at 200 ppm [7] | mortality at 200 ppm [10]

CCS(=O)(=O)c1cc(C(F)(F)F)cnc1-c1nc2cc([S+]([O-])CC(F)(F)F)ncc2n1C (stereo not drawn) [Compound P15, 2-[3-Ethylsulfonyl-5-(trifluoromethyl)-2-pyridyl]-3-methyl-6-(2,2,2-trifluoroethylsulfinyl)imidazo[4,5-c]pyridine]
≥ 80%: pest or weed control at 200 ppm [1] | percent effect (mortality, anti-feeding or growth inhibition) at 12.5 ppm [8] | percent effect (mortality or growth inhibition) at 200 ppm [2] | percent effect (mortality or growth inhibition) at 200 ppm [3] | percent effect (mortality or growth inhibition) at 200 ppm [4] | percent control (mortality, anti-feedant effect or growth inhibition) at 200 ppm [5] | mortality at 200 ppm [9] | mortality at 200 ppm [6] | mortality at 24 ppm [11] | pest or weed control at 200 ppm [7] | mortality at 200 ppm [10]

CCS(=O)(=O)c1cc(C(F)(F)F)cnc1-c1nc2cc(OCC(F)(F)F)ncc2n1C [Compound P14]
≥ 80%: percent effect (mortality or growth inhibition) at 200 ppm [4] | mortality at 200 ppm [6] | mortality at 24 ppm [11]
